Reference: patent US20140275280A1 (COYOTE PHARMACEUTICALS, INC., priority 2013, published 2014)

Assays:
[1] = system: human hepatoma (Bel-7402) cells; test: Acetaminophen-induced hepatotoxicity cytotoxicity assay with S9 mixture; format: cell-based; conditions: cytotoxic concentration of acetaminophen, vs control conditions
Description: In order to test the protective activity of GGA and GGA derivatives from acetaminophen-induced hepatotoxicity, a cytotoxicity assay is employed using human hepatoma (Bel-7402) cells in the presence of S9 mixture. Cell viability and mitochondrial permeability transition (MPT) is assessed in the presence or absence of GGA or GGA derivatives in combination with a cytotoxic concentration of acetaminophen.

mild to moderate IBD = test: Treatment of inflammatory bowel disease (IBD) in subjects; format: in vivo; conditions: daily administration, 12 weeks
Description: (§1) A pharmaceutical composition comprising GGA or a GGA derivative as described herein is prepared. A subject is diagnosed with mild to moderate IBD. […] Subjects are treated for 12 weeks. Subjects keep daily diaries and record the number and nature of bowel movements. The effect of the treatments is assessed by grading clinical symptoms of fecal blood, mucus, and urgency. In addition, sigmoidoscopic assessment and biopsies are performed, and efficacy of treatment assessed, based on grading of sigmoidoscopic and degree of histological inflammation in rectal biopsy specimens. Safety is assessed based on spontaneous side effect reporting.

[2] = system: mild to moderate IBD following gastrectomy; test: Treatment of IBD in gastrectomized patients; format: in vivo; conditions: gastrectomized subjects, daily administration, 12 weeks
Description: as §1, with “IBD following gastrectomy.” for “IBD.”

HL-1 cardiomyocytes = test: In vitro ischemia/reperfusion cardiac disease model; format: cell-based, murine; conditions: HL-1 cells, nutrient-deficiency medium with 2.5 mM hydrogen peroxide
Description: Activity is assessed via apoptosis signaling, cell structure and energy-metabolism. The HL-1 cardiomyocytes (murine atrial tumor cell line) are maintained in monolayer culture with Claycomb-medium (Sigma, Germany), Heaving reached confluence and contractile activity, cells are maintained as subcultures. Induction of ischemia was carried out on vital cardiomyocytes at culture day four. The subconfluent, contractile HL-1 cardiomyocytes are placed in nutrient-deficiency medium containing 2.5 mM hydrogen peroxide solution in order to enhance the oxidative stress in HL-1 cells. In control cultures the medium exchange is carried out with standard supplemented Claycomb-medium. 8 h after ischemia induction samples are harvested and revitalization is induced in parallel by replacing nutrient-deficiency medium with fresh Claycomb-medium and incubating cells for another 16 hours. Cell proliferation analysis is done by flow cytometry. Apoptosis analysis is performed by terminal desoxynucleotidyl transferase-mediated dUTP nick end-labeling. Total number of cells are determined using 7-AAD nucleus staining. Additionally formaldehyde-fixed cells on glass coverslips are prepared for immuncytochemical staining.

[3] = system: heterotopically transplanted hearts; test: Heterotopically transplanted hearts; format: in vivo, rats; conditions: 24 h after transplantation
Description: A total of 20 donor rats are randomly divided into 2 groups. One of those receives an oral dose of GGA or a GGA derivative and one is a control group. […] The levels of HSP70 expression in donor hearts and the variation of myocardial enzymes in receptor blood or donor hearts are measured 24 h after transplantation. The donated hearts are also examined under a microscope for pathological changes. HSP70 expression is increase in the GGA-treated group.

90% hepatectomy = test: Acute liver damage after 90% hepatectomy; format: in vivo, Male Wister rats
Description: Male Wister rats weighing 230-260 g are obtained. After an overnight fast, GGA or a GGA derivative (as an emulsion with 5% gum arabic and 0.004% α-tocophenol) or vehicle (5% gum arabic emulsion with 0.004% α-tocophenol) is intragastrically administrated into rats 4 h prior to the operation. After rats are anesthetized, 90% hepatectomy is performed. Briefly, the left, median, right-upper, and right-lower lobes are removed, leaving the caudate lobes, which represent 10-11% of the original liver mass. Liver specimens and blood samples are collected after laparotomy and exsanguinations under deep anesthesia immediately before (0) and 4,8, 12, and 24 h after the operation. Small pieces of liver tissue are immediately stored in an RNeasy stabilization kit (Qiagen, Hilden, Germany). Sera are immediately separated, and the activities of alanine (ALT) and aspartate (AST) aminotransferases are measured.

DSS-induced colitis = test: Dextran sulfate sodium (DSS)-induced colitis; format: in vivo, BALB/c mice
Description: BALB/c mice are given 3% DSS solution orally for 7 days to induce colitis. The disease activity of colitis is assessed clinically every day, and histology in the colon is evaluated at 7 days post-DSS. The levels of myeloperoxidase (MPO) activity, tumor necrosis factor (TNF)-alpha and interferon (IFN)-gamma in the colon tissues are also examined. In addition, expression of HSPs 25, 40, 70 and 90 in the colon tissue is determined by Western blot analysis or ELISA. GGA or a GGA derivative is administered orally to mice when treatment of DSS is initiated.

IEC-18 cells = test: Protection of intestinal epithelial cells from NH2Cl-induced injury; format: cell-based, Rat; conditions: pretreatment
Description: Cell viability is assessed, and endogenous HSP70 levels are determined by enzyme-linked immunosorbent assay in IEC-18 cells.

[4] = system: myocardial ischemia and reperfusion; test: Myocardial ischemia and reperfusion injury; format: in vivo, male rats; conditions: once orally 24 h before 30 min ischemia, 4 h of reperfusion
Description: Lactate dehydrogenase (LDH), creatine kinase (CK), malondialdehyde (MDA), superoxide dismutase (SOD) activity and infarct size are measured.

[5] = single oral administration 4 h prior to operation, vs vehicle

CC(=O)CC/C=C(\C)CC/C=C(\C)CC/C=C(\C)CCC=C(C)C [GGA, Geranylgeranyl acetone]
cell viability [1]: increased cell viability
efficacy in inflammatory bowel disease (treating the condition and maintaining remission) (mild to moderate IBD): demonstrate efficacy
efficacy in inflammatory bowel disease (treating the condition and maintaining remission) [2]: demonstrate efficacy
ischemia induced apoptosis (TUNEL) (HL-1 cardiomyocytes): reduce ischemia induced apoptosis
ischemia-induced reduction of cell proliferation (HL-1 cardiomyocytes): rescue ischemia-induced reduction of cell proliferation
Lactate dehydrogenase concentration in receptor blood ([3]; vs control group): decreased
atriphosphate concentration ([3]; vs control group): higher
creatine kinase muscle band concentration in receptor blood ([3]; vs control group): decreased
malondialdehyde concentration ([3]; vs control group): lower
HSP70 expression in donor hearts ([3]; oral dose to donor 24 h before transplantation): increase
chaperone induction in liver (gene expression and immunoblot): HSP70, HSP27, BIP (90% hepatectomy; after 90% hepatectomy): induce an endoplasmic reticulum chaperone, BIP
release of aminotransferases (ALT, AST) (90% hepatectomy; [5]): significantly suppresses
survival (90% hepatectomy; [5]): improves survival
expression of HSP70 in the colon (DSS-induced colitis; mice given DSS): enhances
clinical severity of colitis (DSS-induced colitis; oral, 3% DSS for 7 days): significantly reduces
level of IFN-gamma in the colon (DSS-induced colitis; oral, 3% DSS for 7 days): suppresses
level of MPO activity in the colon (DSS-induced colitis; oral, 3% DSS for 7 days): suppresses
level of TNF-alpha in the colon (DSS-induced colitis; oral, 3% DSS for 7 days): suppresses
HSP70 levels (ELISA) (IEC-18 cells): rapidly elevates HSP70 levels
protection against NH2Cl-induced injury (cell viability) (IEC-18 cells): protects against NH2Cl-induced injury
decrease in SOD levels [4]: significantly inhibits
increase in MDA levels [4]: significantly inhibits
infarct size [4]: significantly reduces
level of CK [4]: significantly reduces
level of LDH [4]: significantly reduces
